Experimental findings from US4748175A, “Pyrimido[5,4-B][1,4]oxazine derivatives and pharmaceutical compositions containing them” (priority 1985, dated 1988) are described below.

As a reminder, the LD50 is the dose at which mortality reaches 50%. Read a high LD50 as lower toxicity.

Each structure is given as a SMILES string. Where a name gives a salt, the structure may show the parent alone.

Series [1] deals with anaesthetized open-chest dogs. Description: Investigation on anaesthetized open-chest dogs (MCF, coronary flow, blood pressure, heart rate). Format: in vivo, dog. Here is the method: (B) Investigation on anaesthetized dogs
The animals were i.v. anaesthetized by 35 mg/kg of pentobarbital-sodium. After opening the chest and pericardium, the lower ascending part of the left circumflex coronary artery was prepared and fitted with an electromagnetic flow probe for measuring the blood flow in the coronary artery. A strain gauge arch was placed onto the area supplied by this coronary artery for measuring the MCF. For determining the systemic blood pressure a femoral arterial cannule, for i.v. drug administration a femoral venous cannule was used. The dp/dt value was calculated from the pressure measured by a Millar type pressure transducer introduced to the left ventricle. All parameters were registered on a Beckman R 12 8-channel dynograph.

For another series, the system named is Ca-ATP-ase. Description: Ca-ATP-ase activity ex vivo after 5 days i.p. treatment. Conditions: 2 mg/kg i.p. daily for 5 days; corrected to 1 g of heart tissue. Format: in vivo. Here is the method: The activity of this enzyme was measured according to Mc Namara [J. Biochem. 75, 795 (1974)].
In another experiment, compound 22 was given in a 2 mg/kg i.p. daily dose for 5 days. After taking an ex vivo sample, the enzyme activity was found as decreased by 30% (as corrected to 1 g of heart tissue).

The next series deals with conscious cats. Briefly: Investigation on chronically catheterized conscious cats. The class given is in vivo, cat. Conditions: oral 0.5 to 8.0 mg/kg. The source says:
(C) Investigation on conscious cats
These animals were used according to either the method of Rabloczky and Mader ("Measurement of Systemic and Pulmonary Arterial Pressure in Conscious Animals", lecture on Congress of the International Union of Pharmacologists, Budapest, 1980) or to some modification thereof. The aorta and pulmonary artery were chronically catheterized for measuring both blood pressures. In the modification, the right ventricle was also catheterized for determining the dp/dtmax value.

Series [2] in a line: Acute toxicity (LD50) in mice. Conditions: mouse, in vivo. An excerpt:
(§1) The acute toxicity data of compound 22 are given as LD50 values in Table 2.

A short description of series [3]: Acute toxicity (LD50) in rats. The conditions noted are these: rat, in vivo.
Source text: as §1

The test system of series [4] is open-chest, anaesthetized cats. Description: MCF-increasing effect in open-chest, anaesthetized cats (strain gauge arch on left ventricle). The class given is in vivo, cat. Conditions: Felis catus, iv; 5 mg/kg i.v., open-chest anaesthetized cats; read-out: Increase in MCF as % of the initial value. Here is the method:
(A) Investigation on anaesthetized cats
The animals were intravenously (i.v.) anaesthetized by 30 mg/kg of pentobarbital-sodium. After arranging the artificial respiration, the chest and pericardium were opened. A strain gauge arch was sutured onto the epicardial surface of the left ventricle [J. Pharm. Exp. Ther. 90, 26 (1947)]. The blood pressure was measured by a catheter inserted to the femoral artery and joined to a P 23 Db pressure transducer and electromanometer. The test compounds were administered either i.v. through a femoral vein cannule, or intraduodenally (i.d.) through the duodenum cannule. At the beginning of the experiment, 0.2 μg/kg of isoproterenol (IS) was i.v. given as an internal standard for checking the myocardial reactivity. Namely, the value of the peak MCF response can also be altered according to the individual animals in the case of each positive inotropic agent. Thus, IS was not used as a real reference drug.
The MCF responses were expressed in the percentage changes of the initial value: the effect on MCF of 5 mg/kg i.v. of the test compound was compared to that of 0.2 μg/kg i.v. of IS.

In turn, `Cc1nc(NCCN2CCOCC2)c2c(n1)NC(=O)CO2` [Example 22, 2-Methyl-4-[2-(4-morpholinyl)-ethyl]-amino-6,7-dihydro-8H-pyrimido[5,4-b][1,4]oxazin-7-one dihydrochloride] gave an MCF increase in series [1] (1 mg/kg i.d.) of 35 to 40%. In series [1] (i.d. administration), the “MCF effect relative to amrinone” value was “at least 5 times”. In the series on Ca-ATP-ase, the “Ca-ATP-ase enzyme activity decrease, ex vivo sample” value came out at 30%. For the same compound, the “peak increase in dp/dtmax” value in the series with conscious cats is “about 60%”. Moreover, the LD50 was found to be 573 mg/kg in series [2] (ip, Female); 572 mg/kg in series [2] (ip, Male); 340 mg/kg in series [2] (iv, Female); 324 mg/kg in series [2] (iv, Male); 1420 mg/kg in series [2] (po, Female); 1360 mg/kg in series [2] (po, Male). Besides, the LD50 stood at 260 mg/kg in series [3] (ip, Female); 315 mg/kg in series [3] (ip, Male); 232 mg/kg in series [3] (iv, Female); 253 mg/kg in series [3] (iv, Male); 810 mg/kg in series [3] (po, Female); 830 mg/kg in series [3] (po, Male). Moreover, the change in vivo at 5 mg/kg in series [4] is 70%.
